Measured values reported in US9907837B2, “Composition for preventing or treating cachexia” (GemVax & KAEL Co., Ltd., priority 2012, dated 2018).

System: TNF-α
Assay: TNF-α ELISA with culture of LPS-stimulated PBMC-derived monocytes
Type: cell-based, human
Conditions: monocytes stimulated with LPS 10 ng/ml 2 hrs, starved 1 hr, 4 uM treated for 2 hrs, cell culture medium
Method: PBMC (peripheral blood mononuclear cell) was separated from the blood samples (50 ml) collected from healthy subjects using Ficoll-Paque™ PLUS (GE Healthcare Life Sciences, Piscataway, N.J., USA). PBMCs were then enriched in complete RPMI 1640 medium containing 20% of human serum, followed by transferring to 100 mm polystyrene cell culture plate coated with human serum for 30 mins. […]
To investigate the effect of PEP-1 on TNF-α level in terms of protein expression level, ELISA (enzyme linked immunosorbent assay) was performed. […] After culturing, cell soup was collected, and the amount of TNF-α was measured using ELISA kit (R&D, Minneapolis, Minn., USA) as follows.
TNF measurement uses sandwich ELISA method. […] Again, plate was washed, and avidin/biotin was added for measuring the absorbance. TNF-α level of each sample was quantified using the standard graph calculated from the absorbance of standard solution.
PBMC-derived monocytes were stimulated with endotoxin LPS (10 ng/ml) for 2 hrs, starved for 1 hr using OPTI-MEM, and then 4 uM of FITC, FITC-TAT, PEP 1-FITC and FITC-PEP 1 were treated for 2 hrs. After incubation, TNF-α level was measured with cell culture medium using ELISA.

Fluorescein Isothiocyanate [FITC]
TNF-α level: 6.2 ng/mL
